Measurements as given in paper PMC6094399, “New tools for carbohydrate sulfation analysis: heparan sulfate 2-O-sulfotransferase (HS2ST) is a target for small-molecule protein kinase inhibitors” (Biochemical Journal, 2018).
Where “and” joins values, the source holds several entries; their conditions need not be identical. Equal entries are not always repeated. Entries after “also recorded” stand apart in the source; their conditions may differ. Where two headings read alike, the source gives them in different places.

What was measured:
[1] = system: MBP; test: DSF thermal shift control with MBP; type: binding; settings: 0.5 mM PAPS, 10 μM heparin or 5 mM maltose; result in words
[2] = target: T1, HS2ST (Gallus gallus, UniProt Q76KB1); test: DSF thermal shift/stability assay of MBP-HS2ST; type: binding, Chicken; settings: 5 μM MBP-HS2ST; for thermal stabilisation of HS2ST (DSF): result in words
T1 construct: made in house; host or cells: Escherichia coli Rosetta-gami (DE3), modified pMAL-c2x plasmid
T1 sequence (Q76KB1 69-356): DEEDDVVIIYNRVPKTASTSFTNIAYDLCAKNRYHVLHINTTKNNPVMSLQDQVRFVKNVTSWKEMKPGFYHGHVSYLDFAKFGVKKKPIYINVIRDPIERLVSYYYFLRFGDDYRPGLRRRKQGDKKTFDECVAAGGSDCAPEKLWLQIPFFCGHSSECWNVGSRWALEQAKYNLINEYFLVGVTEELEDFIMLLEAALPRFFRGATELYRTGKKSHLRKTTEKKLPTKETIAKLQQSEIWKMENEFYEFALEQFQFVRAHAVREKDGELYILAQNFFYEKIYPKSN

[3] = target: T1, HS2ST; test: Microfluidic mobility shift sulfation assay with fluorescent hexasaccharide substrate; type: biochemical, Chicken; settings: for mode of HS2ST inhibition: increasing concentration of PAPS, 10 μM PAP, 0.5 mM CoA or 20 μM rottlerin; for HS2ST inhibition (dose-response): 1 μM PAPS, 15 min at 20°C (Figure 4C); for HS2ST inhibition: concentrations as high as 400 μM (Supplementary Figure S9B)
Source text: (§1) N-sulfated, fluorescein-tagged hexasaccharide glycan substrate (GlcNS–GlcA–GlcNS–IdoA–GlcNS–GlcA-fluorescein, where S = sulfation) containing either L-IdoA or D-GlcA residues at the third residue from the reducing end (to which a linker and the fluorophore were conjugated) was both purchased from GLYCAN therapeutics (www.glycantherapeutics.com). […] Chemically modified heparins were generated through a published procedure, whereas oligosaccharides from Iduron were generated enzymatically. Non-radioactive microfluidic mobility shift carbohydrate sulfation assays were optimised in solution with a 12-sipper chip coated with CR8 reagent and a PerkinElmer EZ Reader II system using EDTA-based separation buffer and real-time kinetic evaluation of substrate sulfation. Pressure and voltage settings were adjusted manually to afford optimal separation of the sulfated product and non-sulfated hexasaccharide substrate, with a sample (sip) volume of 20 nl, and total assay times appropriate for the experiment. […] The degree of oligosaccharide sulfation was directly calculated using the EZ Reader software by measuring the sulfo oligosaccharide : oligosaccharide ratio at each time-point. The activity of HS2ST enzymes in the presence of biochemicals and small-molecule inhibitors was quantified in ‘kinetic mode’ by monitoring the amount of sulfated glycan generated over the assay time, relative to control assay with no additional inhibitor molecule (DMSO control). […] Km and IC50 values were determined by nonlinear regression analysis with GraphPad Prism software.
The PKIS chemical library (Supplementary Figure S6, designated as SB, GSK or GW compound sets) comprises 367 largely ATP-competitive kinase inhibitors, covering 31 chemotypes originally designed to inhibit 24 distinct protein kinase targets. Compounds were stored frozen as a 10 mM stock in DMSO. The library is characterised as highly drug-like (∼70% with molecular mass <500 Da and clogP values <5). […] For inhibition assays, competition assays or individual IC50 value determination, a compound range was prepared by serial dilution in DMSO and added directly into the assay to the appropriate final concentration. All control experiments contained 4% (v/v) DMSO, which had essentially no effect on HS2ST activity. Individual chemicals and glycan derivatives were prepared and evaluated using NMR, HPLC, DSF or microfluidics-based assay protocols, as described above.

[4] = system: catalytic subunit of cAMP-dependent protein kinase (PKAc); test: DSF thermal shift of recombinant PKAc; type: binding; settings: 5 μM PKAc
[5] = system: hormone iodotyrosine sulfotransferases; settings: read-out: Km for PAPS; human hormone iodotyrosine sulfotransferases; cited from earlier work
[6] = system: GlcNAc-6-sulfotransferase NodH; settings: read-out: Km for PAPS; PAPS-dependent GlcNAc-6-sulfotransferase NodH; cited from earlier work
[7] = system: tyrosyl sulfotransferase; settings: read-out: Km for PAPS; tissue-purified tyrosyl sulfotransferase; cited from earlier work
[8] = system: HS2ST; settings: read-out: Km for PAPS; HS2ST using desulfated heparin as a substrate; cited from earlier work
[9] = substrate: Nc1ncnc2c1ncn2C1OC(COP(=O)(O)OS(=O)(=O)O)C(OP(=O)(O)O)C1O; test: Microfluidic mobility shift sulfation assay with fluorescent hexasaccharide substrate; type: biochemical, Chicken; settings: other: 20 nM HS2ST, fluorescein-labelled IdoA hexasaccharide substrate; pH 7.4
Source text: as §1, with “sulfation.” for “sulfation. Pressure and voltage settings were adjusted manually to afford optimal separation of the sulfated product and non-sulfated hexasaccharide substrate, with a sample (sip) volume of 20 nl, and total assay times appropriate for the experiment.”, “software. […]” for “software.”

[10] = nucleotides, 20 nM HS2ST, 10 μM PAPS, absence of MgCl2, 15 min, read-out: IC50
[11] = 20 nM HS2ST, 10 μM PAPS (Figure 3D), read-out: IC50
[12] = positive controls of the PKIS enzyme re-screen (Figure 4B, Supplementary Figures 7 and 8), read-out: IC50

## OC[C@H]1O[C@H](O[C@H]2[C@H](O)[C@@H](O)C(O)O[C@@H]2CO)[C@H](O)[C@@H](O)[C@@H]1O (mixture of isomers) [maltose]
[1]
  thermal stabilisation of MBP (DSF): characteristic stabilisation profile

## Nc1ncnc2c1ncn2[C@@H]1O[C@H](COP(=O)(O)OP(=O)(O)O)[C@@H](O)[C@H]1O [ADP, adenosine 5′-diphosphate]
[2]
  thermal stabilisation of HS2ST (DSF): effective at protecting HS2ST from thermal denaturation

## Nc1ncnc2c1ncn2[C@@H]1O[C@H](COP(=O)(O)O)[C@@H](O)[C@H]1O [AMP, adenosine 5′-monophosphate]
[2]
  thermal stabilisation of HS2ST (DSF): not

## Nc1ncnc2c1ncn2[C@@H]1O[C@H](COP(=O)(O)OP(=O)(O)OP(=O)(O)O)[C@@H](O)[C@H]1O [ATP, adenosine 5′-triphosphate]
[3]; [10]
  IC50: 466 µM

## CC(C)(COP(=O)(O)OP(=O)(O)OC[C@H]1O[C@@H](n2cnc3c(N)ncnc32)[C@H](O)[C@@H]1OP(=O)(O)O)[C@@H](O)C(=O)NCCC(=O)NCCS [CoA, coenzyme A]
[3]
  mode of HS2ST inhibition: PAPS-competitive mode of inhibition
[3]; [10]
  IC50: 65 µM
[2]
  thermal stabilisation of HS2ST (DSF): clearly induced thermal stabilisation

## Nc1nc2c(ncn2[C@@H]2O[C@H](COP(=O)(O)OP(=O)(O)OP(=O)(O)O)[C@@H](O)[C@H]2O)c(=O)[nH]1 [GTP, guanosine 5′-triphosphate]
[2]
  thermal stabilisation of HS2ST (DSF): effective at protecting HS2ST from thermal denaturation

## O=C1Nc2ccc(I)cc2C1=Cc1cc(Br)c(O)c(Br)c1 [GW305074]
[3]; 20 nM HS2ST, result in words
  HS2ST inhibition (dose-response): mid-micromolar HS2ST inhibitor

## COC(=O)c1ccc2c(c1)C(=Cc1cc(Br)c(O)c(Br)c1)C(=O)N2 [GW405841X]
[3]; 20 nM HS2ST, result in words
  HS2ST inhibition (dose-response): did not inhibit HS2ST at any concentration tested

## [Mg+2] [Mg^2+]
[3]; high (>1 mM) concentrations of Mg2+ ions, relative to buffer controls, result in words
  HS2ST enzyme activity: concentration-dependent increases
[2]; DSF
  ΔTm: ~3 °C

## Nc1ncnc2c1ncn2C1OC(COP(=O)(O)O)C(OP(=O)(O)O)C1O (stereo not drawn) [PAP, adenosine 3′–5′-diphosphate]
[3]
  mode of HS2ST inhibition: PAPS-competitive mode of inhibition
[3]; [10]
  IC50: ~2 µM
[2]
  thermal stabilisation of HS2ST (DSF): did not abrogate HS2ST binding

## Nc1ncnc2c1ncn2C1OC(COP(=O)(O)OS(=O)(=O)O)C(OP(=O)(O)O)C1O (stereo not drawn) [PAPS, adenosine 3′-phosphate 5′-phosphosulfate]
[4]; 0.5 mM PAPS, result in words
  thermal stabilisation of PKAc (DSF): did not stabilise
[5]
  Km: 1.5 µM
[6]
  Km: ~4.3 µM
[2]
  thermal stabilisation of HS2ST (DSF): positively shifted (stabilised); also recorded: dose-dependent stabilisation
[7]
  Km: 10 µM
[1]
  thermal stabilisation of MBP (DSF): neither PAPS nor heparin induced stabilisation
[8]
  Km: 18.5 µM

## CC(=O)SCCNC(=O)CCNC(=O)[C@H](O)C(C)(C)COP(=O)(O)OP(=O)(O)OC[C@H]1O[C@@H](n2cnc3c(N)ncnc32)[C@H](O)[C@@H]1OP(=O)(O)O [acetyl CoA]
[2]
  thermal stabilisation of HS2ST (DSF): clearly induced thermal stabilisation

## O=C(O)C1=CC(=C(c2ccc(O)c(C(=O)O)c2)c2ccc(O)c(C(=O)O)c2)C=CC1=O [aurintricarboxylate, aurintricarboxylic acid]
[3]; [11]
  IC50: 0.123 ± 0.007 µM
[3]; [12]
  IC50: ~0.09 µM

## CC(C)(C)c1nc(-c2cccc(NS(=O)(=O)c3c(F)cccc3F)c2F)c(-c2ccnc(N)n2)s1 [dabrafenib]
[3]; result in words
  HS2ST inhibition: unable to inhibit HS2ST

## CC(C)(COP(=O)(O)OP(=O)(O)OC[C@H]1O[C@@H](n2cnc3c(N)ncnc32)[C@H](O)[C@@H]1O)[C@@H](O)C(=O)NCCC(=O)NCCS [dephospho-CoA, 3′-dephosphoCoA]
[2]
  thermal stabilisation of HS2ST (DSF): abolished this effect

## CC(=O)c1c(O)c(C)c(O)c(Cc2c(O)c3c(c(C(=O)/C=C/c4ccccc4)c2O)OC(C)(C)C=C3)c1O [rottlerin]
[3]; IC50, 20 nM HS2ST, 10 μM PAPS (Figure 3D)
  IC50: 6.4 µM
[3]; IC50, positive control of the PKIS enzyme re-screen (Figure 4B, Supplementary Figures 7 and 8)
  IC50: ~8 µM
[3]
  mode of HS2ST inhibition: competitive mode of HS2ST inhibition

## CN[C@@H]1C[C@H]2O[C@@](C)([C@@H]1OC)n1c3ccccc3c3c4c(c5c6ccccc6n2c5c31)C(=O)NC4 [staurosporine]
[2]
  thermal stabilisation of HS2ST (DSF): neither the pan-kinase inhibitor staurosporine nor several FDA-approved tyrosine kinase inhibitors caused thermal stabilisation

## Cc1ccc(C(=O)Nc2ccc(S(=O)(=O)O)c3cc(S(=O)(=O)O)cc(S(=O)(=O)O)c23)cc1NC(=O)c1cccc(NC(=O)Nc2cccc(C(=O)Nc3cc(C(=O)Nc4ccc(S(=O)(=O)O)c5cc(S(=O)(=O)O)cc(S(=O)(=O)O)c45)ccc3C)c2)c1 [suramin]
[3]; [11]
  IC50: 0.04 ± 0.001 µM
[3]; [12]
  IC50: ~0.02 µM

## CCCS(=O)(=O)Nc1ccc(F)c(C(=O)c2c[nH]c3ncc(-c4ccc(Cl)cc4)cc23)c1F [vemurafenib]
[3]; result in words
  HS2ST inhibition: unable to inhibit HS2ST

## Mg-ATP
[4]; 0.5 mM ATP and 10 mM MgCl2
  ΔTm: > 4 °C

B1: HS2ST (Gallus gallus) (protein)
chain: DEEDDVVIIYNRVPKTASTSFTNIAYDLCAKNRYHVLHINTTKNNPVMSLQDQVRFVKNVTSWKEMKPGFYHGHVSYLDFAKFGVKKKPIYINVIRDPIERLVSYYYFLRFGDDYRPGLRRRKQGDKKTFDECVAAGGSDCAPEKLWLQIPFFCGHSSECWNVGSRWALEQAKYNLINEYFLVGVTEELEDFIMLLEAALPRFFRGATELYRTGKKSHLRKTTEKKLPTKETIAKLQQSEIWKMENEFYEFALEQFQFVRAHAVREKDGELYILAQNFFYEKIYPKSN
notes: made in house; host or cells: Escherichia coli Rosetta-gami (DE3), modified pMAL-c2x plasmid
[9]
  Km: 1.03 ± 0.2 µM and 1 µM and 1.0 µM
